Laboratory results from patent publication US12178841B2, “Treatment of non-cystic fibrosis bronchiectasis” (priority 2021, dated 2024).
“Also recorded” adds a separate entry of the source. Read-outs that look alike come from different tables or passages of the source.

Key:
[1] = 1 MIU [33 mg CBA] via I-neb twice a day, up to 6 months, placebo 0.45% saline, cited from earlier work
[2] = human, in vivo; cited from earlier work
[3] = set-up: species or system human; conditions: in vivo
Description: Safety Variables • incidence of TEAEs; • absolute changes in percent-predicted FEV1 from baseline (Visit 2) to end of treatment (Visit 7); • number of subjects experiencing bronchospasm clinically or spirometrically determined following IMP administration at the start and end of treatment; • P. aeruginosa resistance to colistin sulphate as determined by in-vitro susceptibility testing on sputum from Screening/Randomisation (Visit 1/Visit 2) to Visits 3, 5 and end of treatment (Visit 7) as well as on sputum from Exacerbation Visits and clinic visits due to pneumonia; • emergence of other bacterial colonies and any developing resistance in sputum from Screening (Visit 1) to End of Treatment (Visit 7); • haematology, clinical chemistry and renal function tests; • physical examination and vital signs data; • 12-lead electrocardiogram

Pseudomonas aeruginosa = assay: PROMIS I: Pseudomonas aeruginosa density in sputum; format: in vivo, human; conditions: for Mean change from baseline in P. aeruginosa density (mITT): n = 176
Description: Least square means in each treatment group, least square mean difference between treatments, their 95% CIs and associated p-values will be estimated.
Summary statistics of the P. aeruginosa density (log 10 CFU/g sputum) and change from baseline (Visit 2) will be provided by treatment group for each trial visit.
Results of the quantitative analysis for P. aeruginosa density will be presented as colony forming units (CFU) count per gram sputum.

[4] = PROMIS I Phase III clinical study: pulmonary exacerbations under inhaled CMS by I-neb vs placebo; format: in vivo, human
[5] = ORBIT-3 and RESPIRE-2 trials; cited from earlier work

Compound | time to first exacerbation (primary endpoint) vs placebo [1] | adverse respiratory effects (cough, dyspnoea, bronchospasm, sore throat), people affected [2] | broncospasm experienced clinically [3] [%] | safety and tolerability (in words) [3] | Mean change from baseline in P. aeruginosa density (mITT) (Pseudomonas aeruginosa; Visit 3 (28 days)) | Mean change from baseline in P. aeruginosa density (mITT) (Pseudomonas aeruginosa; Visit 5 (6 months)) | Mean change from baseline in P. aeruginosa density (mITT) (Pseudomonas aeruginosa; Visit 6 (9 months)) | Mean change from baseline in P. aeruginosa density (mITT) (Pseudomonas aeruginosa; Visit 7 (12 months/EOT), includes those who discontinued early) | P. aeruginosa density (in words) (Pseudomonas aeruginosa; patients on colistimethate sodium over the study) | annual rate of exacerbations ([4]; CMS 1 MIU (33 mg CBA) by I-neb twice a day, 12 months, placebo 0.95) [per patient per year] | severe exacerbations (requiring intravenous antibiotics and/or hospitalization), RR ([4]; CMS I-neb vs placebo, 95% CI 0.23-0.74, p=0.003) | time to first exacerbation, Hazard Ratio (HR) ([4]; CMS I-neb vs placebo, 95% CI 0.43-0.81, p=0.00074) | rate ratio (RR) of annual rate of exacerbations vs placebo ([4]; CMS I-neb vs placebo, 95% CI 0.46-0.82, p=0.00101) | time to first exacerbation (primary endpoint) vs placebo ([1]; listed as CMS) | primary endpoints [5]
colistin | not to be associated with a statistically significant improvement |  |  |  |  |  |  |  |  |  |  |  |  |  | 
colistimethate sodium | not statistically different | at least 1 in 10 | 0.6 | safe and well tolerated | −1.59 log10(CFU/mL) | −1.39 log10(CFU/mL) | −1.56 log10(CFU/mL) | −0.86 log10(CFU/mL) | fell rapidly and remained suppressed; also recorded: falls rapidly and remains suppressed | 0.58 | 0.41 | 0.59 | 0.61 | failed to achieve its primary endpoint | 
O=C(O)c1cn(C2CC2)c2cc(N3CCNCC3)c(F)cc2c1=O [ciprofloxacin] |  |  |  |  |  |  |  |  |  |  |  |  |  |  | failed to achieve their primary endpoints
